# According to patent US4292318A, “Product and method for combating swine dysentery” (priority 1979, dated 1981):
# Tests used:
# [1] = Teratogenetic study, mouse; format: in vivo; conditions: 250 mg/kg/day oral, 3rd to 13th days
# Experimental: (§1) In view of the favourable results on chronic toxicity, a teratogenic study was conducted with male and female mice and rats.
# a. Animal Species: Mouse, Male and female mice housed together for 10
# Oral treatment from 3rd day to 13th days.
# [2] = Acute toxicity in the guinea pig by esophageal administration; format: in vivo
# Experimental: (§2) The compound was tested for acute toxicity by several modes of administration in four species, namely mice, rat, guinea pig, and rabbit. […] The results are given below in Tables 3, 4, 5 and 6.
# [3] = Acute toxicity in the rabbit by esophageal administration; format: in vivo
# Experimental: as §2
# [4] = Subacute toxicity in female rats; format: in vivo, rat; conditions: 2 g/kg/day by gastric lavage for 21 days
# [5] = Chronic toxicity in the female mouse; format: in vivo; conditions: for Dead/Treated / Body Weight in g (m ± SE) Start / Body Weight in g (m ± SE) Termination: gastric lavage, 18 weeks; for Fresh Organ-to-Body-Weight Ratio, Heart / Fresh Organ-to-Body-Weight Ratio, Kidneys / Fresh Organ-to-Body-Weight Ratio, Liver / Fresh Organ-to-Body-Weight Ratio, Lungs: m ± SE, 4 animals; for Blood Glucose / SGOT / SGPT: mean of 6 animals, 24 hours after last dose
# Description: In view of the favourable sub-acute toxicity, the chronic toxicity in female mice was studied.
# [6] = Acute toxicity in female mice; format: in vivo
# Experimental: as §2
# [7] = General safety statement; conditions: statement in the description
# [8] = Acute toxicity by several modes of administration in four species; format: in vivo, and rabbit; conditions: mice, rat, guinea pig, rabbit
# Experimental: as §2
# [9] = Subacute toxicity in the mouse; format: in vivo; conditions: for SGOT / SGPT: 24 hrs. after last dose
# Experimental: In view of the favourable acute toxicity data, the compound was administered orally in sub-acute, but relatively large, doses to mice and rats for 15 days. Data were collected on the effects on death rate, weight, liver, and kidneys.
# [10] = Teratogenic study with male and female mice and rats; format: in vivo
# Experimental: as §1
# [11] = Acute toxicity in the rat; format: in vivo; conditions: for Dead/Treated within 21 days / Body weight (m ± SEM) in g. start / Body weight (m ± SEM) in g. Termination: First Experiment; for Body weight (m ± SEM) in g. Termination: Student's t test: t 0.05
# Experimental: as §2
# [12] = tested on: five strains of Vibrio cholerae; experiment: In vitro effect on five strains of Vibrio cholerae (summary)
# [13] = Teratogenetic study, rat; format: in vivo; conditions: 250 mg/kg/day oral, same conditions as mouse
# Experimental: as §1
# b. Animal Species. Rat. Same experimental conditions as with the mouse.
# [14] = tested on: Treponema hyodysenteriae; experiment: In vitro test against Treponema hyodysenteriae (MIC, MBC); format: cell-based; conditions: Brachyspira hyodysenteriae, lowest concentration in a dilution series where growth is inhibited, read-out: minimum inhibitory concentration
# Experimental: D was tested in vitro against Treponema hyodysenteriae by a known method. The minimum inhibitory concentration (the lowest concentration of compound in a dilution series where growth is inhibited) was 0.1 mcg/ml. The minimum bactericidal concentration (the lowest concentration of compound in which no viable treponemes are observed upon dilution and subculture from the broth onto blood agar plates) was greater than 0.1 mcg/ml but less than 1 mcg/ml.
# [15] = 500 mg/kg/day by gastric lavage for 15 days
# [16] = in adraganth gum, 1 g/kg/day for 15 days
# [17] = Second Experiment, F, esophageal, 4000 mg/kg
# [18] = Second Experiment, F, intraperitoneal, 500 mg/kg
# [19] = Second Experiment, M, esophageal, 4000 mg/kg
# [20] = Second Experiment, M, intraperitoneal, 500 mg/kg
structure (smiles),measurement,setting,value
"CCC(C)c1cnc(CC(C)C)c(=O)n1O [D, D-aspergillic acid]",Body Weight of Foetuses in g (m ± SE),[1],1.42 ± 0.05 g
same,No. of Foetuses with malformations,[1],0
same,No. of living Foetuses per Delivery (m ± SE),[1],10.3 ± 0.6
same,Pregnant/Treated Animals,[1],3/10
same,Dead/Treated within 21 days,[2]; 500 mg/kg,0/4
same,Dead/Treated within 21 days,[2]; 1000 mg/kg,1/4
same,Dead/Treated within 21 days,[2]; 2000 mg/kg,5/6
same,Dead/Treated within 21 days,[2]; 4000 mg/kg,6/6
same,Dead/Treated within 7 days,[3]; 500 mg/kg,0/2
same,Body Weight in g. start,"[3]; 500 mg/kg, start",2000 to 2100 g
same,Dead/Treated within 7 days,[3]; 1000 mg/kg,0/4
same,Body Weight (m ± SE) in g. start,"[3]; 1000 mg/kg, start",2037 ± 104.3 g
same,Body Weight (m ± SE) in g. Termination,"[3]; 1000 mg/kg, termination",1922.5 ± 71.5 g
same,Dead/Treated within 7 days,[3]; 2000 mg/kg,0/2
same,"dead out of treated animals, within 4 days (footnote)","[3]; 2000 mg/kg, within 4 days",two dead out of seven treated animals
same,"Average Percent Weight of Fresh Organs, Kidneys","[4]; 5 animals, NS",1.04 ± 0.03%
same,"Average Percent Weight of Fresh Organs, Liver","[4]; 5 animals, NS",4.54 ± 0.10%
same,"Average Percent Weight of Fresh Organs, Lung","[4]; 5 animals, NS",1.07 ± 0.09%
same,Body Weight in g (m ± SE) Start,[4]; start,204.1 ± 2.0 g
same,Body Weight in g (m ± SE) Termination,[4]; termination,210.6 ± 9.6 g
same,Dead/Treated,"[4]; D, death caused by a mistake in esophagus incannulation",1/6
same,Urine Amount excreted by 6 animals in 6 hours,[5]; 250 mg/kg/day,6.5 mL
same,Dead/Treated,[5]; 250 mg/kg/day,0/10
same,Body Weight in g (m ± SE) Start,[5]; 250 mg/kg/day,27.3 ± 0.5 g
same,Body Weight in g (m ± SE) Termination,[5]; 250 mg/kg/day,26.7 ± 0.7 g
same,"Fresh Organ-to-Body-Weight Ratio, Heart",[5]; 250 mg/kg/day,0.60 ± 0.08
same,"Fresh Organ-to-Body-Weight Ratio, Kidneys",[5]; 250 mg/kg/day,0.87 ± 0.08
same,"Fresh Organ-to-Body-Weight Ratio, Liver",[5]; 250 mg/kg/day,4.57 ± 0.25
same,"Fresh Organ-to-Body-Weight Ratio, Lungs",[5]; 250 mg/kg/day,0.731 ± 0.035
same,Blood Glucose,[5]; 250 mg/kg/day,1.10
same,SGOT,[5]; 250 mg/kg/day,118 Units/ml
same,SGPT,[5]; 250 mg/kg/day,5 Units/ml
same,Urine Amount excreted by 6 animals in 6 hours,[5]; 500 mg/kg/day,7 mL
same,Dead/Treated,[5]; 500 mg/kg/day,2/10
same,Body Weight in g (m ± SE) Start,[5]; 500 mg/kg/day,30.4 ± 0.9 g
same,Body Weight in g (m ± SE) Termination,[5]; 500 mg/kg/day,30.0 ± 0.7 g
same,"Fresh Organ-to-Body-Weight Ratio, Heart",[5]; 500 mg/kg/day,0.47 ± 0.02
same,"Fresh Organ-to-Body-Weight Ratio, Kidneys",[5]; 500 mg/kg/day,1.07 ± 0.04
same,"Fresh Organ-to-Body-Weight Ratio, Liver",[5]; 500 mg/kg/day,4.66 ± 0.91
same,"Fresh Organ-to-Body-Weight Ratio, Lungs",[5]; 500 mg/kg/day,1.011 ± 0.110
same,Blood Glucose,[5]; 500 mg/kg/day,1.06
same,SGOT,[5]; 500 mg/kg/day,159 Units/ml
same,SGPT,[5]; 500 mg/kg/day,6 Units/ml
same,Dead/Treated Animals after 7 days,"[6]; endoperitoneal, 250 mg/kg",0/18
same,Dead/Treated Animals after 7 days,"[6]; endoperitoneal, 500 mg/kg",6/12
same,Dead/Treated Animals after 2 days,"[6]; endoperitoneal, 1000 mg/kg, 2 days",6/6
same,Dead/Treated Animals after 7 days,"[6]; endoperitoneal, 1000 mg/kg",6/6
same,Dead/Treated Animals after 1 day,"[6]; endoperitoneal, 2000 mg/kg, 1 day",6/6
same,Dead/Treated Animals after 7 days,"[6]; endoperitoneal, 2000 mg/kg",6/6
same,Dead/Treated Animals after 7 days,"[6]; esophageal, 1000 mg/kg",0/12
same,Dead/Treated Animals after 7 days,"[6]; esophageal, 2000 mg/kg",0/12
same,Dead/Treated Animals after 4 days,"[6]; esophageal, 4000 mg/kg, 4 days",1/12
same,Dead/Treated Animals after 7 days,"[6]; esophageal, 4000 mg/kg",1/12
same,nitrogenic (so in the source),[7],not nitrogenic
same,acute toxicity,[8],low order of toxicity
same,% Body Weight Change,[9]; [15],-8.1 ± 3.9%
same,Dead/Treated,[9]; [15],0/10
same,"Fresh Organ-to-Body Weight Ratio, Kidneys",[9]; [15],1.5 ± 0.1
same,"Fresh Organ-to-Body Weight Ratio, Liver",[9]; [15],5.9 ± 0.3
same,% Body Weight Change,"[9]; in H2O, 1 g/kg/day for 15 days",18.5 ± 0.75%
same,Dead/Treated,"[9]; in H2O, 1 g/kg/day for 15 days",2/12
same,% Body Weight Change,[9]; [16],16.27 ± 1.31%
same,Dead/Treated,[9]; [16],3/12
same,SGOT,[9]; in adraganth gum,132 Units/ml
same,SGPT,[9]; in adraganth gum,10 Units/ml
same,SGOT,[9]; in water,124 Units/ml
same,SGPT,[9]; in water,9 Units/ml
same,number of young delivered live at birth,[10],comparable with controls
same,malformations,[10]; either group,No malformations
same,Dead/Treated within 7 days,"[11]; Cumulative data regardless of sex, esophageal, 4000 mg/kg",0/16
same,Dead/Treated within 7 days,"[11]; Cumulative data regardless of sex, intraperitoneal, 500 mg/kg",4/16
same,Dead/Treated within 21 days,"[11]; F, endoperitoneal, 500 mg/kg",2/4
same,Body weight (m ± SEM) in g. start,"[11]; F, endoperitoneal, 500 mg/kg",206.2 ± 8.7 g
same,Dead/Treated within 21 days,"[11]; F, esophageal, 4000 mg/kg",0/4
same,Body weight (m ± SEM) in g. start,"[11]; F, esophageal, 4000 mg/kg",201.2 ± 4.2 g
same,Body weight (m ± SEM) in g. Termination,"[11]; F, esophageal, 4000 mg/kg",238.2 ± 12.1 g
same,Dead/Treated within 21 days,"[11]; M, endoperitoneal, 500 mg/kg",1/4
same,Body weight (m ± SEM) in g. start,"[11]; M, endoperitoneal, 500 mg/kg",234.0 ± 6.2 g
same,Body weight (m ± SEM) in g. Termination,"[11]; M, endoperitoneal, 500 mg/kg",314.3 ± 10.3 g
same,Dead/Treated within 21 days,"[11]; M, esophageal, 4000 mg/kg",0/4
same,Body weight (m ± SEM) in g. start,"[11]; M, esophageal, 4000 mg/kg",234.5 ± 13.8 g
same,Body weight (m ± SEM) in g. Termination,"[11]; M, esophageal, 4000 mg/kg",288.7 ± 13.8 g
same,Dead/Treated within 7 days,[11]; [17],0/4
same,Body weight (±SE) in g. start,[11]; [17],252.0 ± 16.6 g
same,Body weight (±SE) in g. Termination,[11]; [17],253.5 ± 12.1 g
same,Dead/Treated within 7 days,[11]; [18],0/4
same,Body weight (±SE) in g. start,[11]; [18],232.5 ± 5.9 g
same,Body weight (±SE) in g. Termination,[11]; [18],218.2 ± 7.0 g
same,Dead/Treated within 7 days,[11]; [19],0/4
same,Body weight (±SE) in g. start,[11]; [19],222.5 ± 6.2 g
same,Body weight (±SE) in g. Termination,[11]; [19],231.7 ± 15.7 g
same,Dead/Treated within 7 days,[11]; [20],2/4
same,Body weight (±SE) in g. start,[11]; [20],226.2 ± 6.8 g
same,growth of 3 of the organisms,"[12]; 10 mcg/ml, after 48 hours",no growth
same,growth of the remaining two organisms,[12]; 100 mcg/ml,only marginal growth
same,Body Weight of Foetuses in g (m ± SE),[13],7.08 ± 0.19 g
same,No. of Foetuses with malformations,[13],0
same,No. of living Foetuses per Delivery (m ± SE),[13],10.8 ± 0.86
same,Pregnant/Treated Animals,[13],7/10
same,MIC,[14],0.1 µg/mL
